# Results taken from PubChem BioAssay AID314 (DTP/NCI, 2004).
# Values joined by “and” are separate entries in the source; they are usually repeats but may differ in a detail not shown here. Equal entries are not always repeated. Toxic doses and inconclusive results are not listed.
# Test system: DBA/2 mice, P1534 leukemia ip, survival T/C
# Assay: NCI In Vivo Anticancer Drug Screen. Data for tumor model P1534 Leukemia (intraperitoneal) in DBA/2 mice
# Conditions: endpoint: mean survival time, higher = longer survival
# Method: The antitumor activity of compounds was measured in mice bearing transplantable tumors. Survival or tumor size were measured and the results are expressed as the measurement made in the treated group (T) divided by the measurement made in the vehicle treated control group (C). The tumor model used in this assay is P1534 Leukemia (intraperitoneal) in DBA/2 mice
# [1] = dose: 1.0 mg/kg/injection, schedule: Q01DX010 (ip), vehicle: saline
# [2] = dose: 2.5 mg/kg/injection, schedule: Q01DX010 (ip), vehicle: saline
# [3] = dose: 50.0 mg/kg/injection, schedule: Q01DX010 (ip), vehicle: saline
# [4] = dose: 100.0 mg/kg/injection, schedule: Q01DX010 (ip), vehicle: saline
# [5] = dose: 3.13 mg/kg/injection, schedule: Q01DX010 (ip), vehicle: saline
# [6] = dose: 10.0 mg/kg/injection, schedule: Q01DX010 (ip), vehicle: saline
# [7] = dose: 20.0 mg/kg/injection, schedule: Q01DX010 (ip), vehicle: saline
# [8] = dose: 5.0 mg/kg/injection, schedule: Q01DX010 (ip), vehicle: saline
# [9] = dose: 15.6 mg/kg/injection, schedule: Q01DX010 (ip), vehicle: saline
# [10] = dose: 31.3 mg/kg/injection, schedule: Q01DX010 (ip), vehicle: saline
# [11] = dose: 62.5 mg/kg/injection, schedule: Q01DX010 (ip), vehicle: saline
# [12] = dose: 250.0 mg/kg/injection, schedule: Q01DX010 (ip), vehicle: saline
# [13] = dose: 32.0 mg/kg/injection, schedule: Q01DX010 (ip), vehicle: saline
# [14] = dose: 64.0 mg/kg/injection, schedule: Q01DX010 (ip), vehicle: saline
structure (smiles),measurement,setting,value
N[C@@H](Cc1ccc(N(CCCl)CCCl)cc1)C(=O)O,T/C,"dose: 0.5 mg/kg/injection, schedule: Q01DX010 (ip), vehicle: saline",119 % of control and 123 % of control
same,T/C,"dose: 1.0 mg/kg/injection, schedule: Q01DX010 (ip), vehicle: other",88 % of control
same,T/C,[1],119 % of control and 123 % of control
same,T/C,"dose: 2.0 mg/kg/injection, schedule: Q01DX010 (ip), vehicle: saline",161 % of control
COC(=O)C1C(O)CCC2CN3CCc4c([nH]c5ccccc45)C3CC21 (stereo not given),T/C,"dose: 0.31 mg/kg/injection, schedule: Q01DX010 (ip), vehicle: saline",103 % of control
same,T/C,"dose: 0.63 mg/kg/injection, schedule: Q01DX010 (ip), vehicle: saline",103 % of control
same,T/C,"dose: 1.25 mg/kg/injection, schedule: Q01DX010 (ip), vehicle: saline",106 % of control
same,T/C,[2],103 % of control
[N-]=[N+]=CC(=O)NCC(=O)NN,T/C,[3],108 % of control
same,T/C,[4],100 % of control
same,T/C,"dose: 200.0 mg/kg/injection, schedule: Q01DX010 (ip), vehicle: saline",95 % of control
same,T/C,"dose: 400.0 mg/kg/injection, schedule: Q01DX010 (ip), vehicle: saline",91 % of control
CCc1c(CC(=O)O)c2cc(C)ccc2n1Cc1ccc(Cl)cc1,T/C,[5],103 % of control
same,T/C,"dose: 6.25 mg/kg/injection, schedule: Q01DX010 (ip), vehicle: saline",107 % of control
same,T/C,"dose: 12.5 mg/kg/injection, schedule: Q01DX010 (ip), vehicle: saline",103 % of control
CN(C)/N=N/c1nc[nH]c1C(N)=O,T/C,"dose: 25.0 mg/kg/injection, schedule: Q01DX010 (ip), vehicle: saline",96 % of control
same,T/C,[3],90 % of control
same,T/C,[4],86 % of control
N=C(N)N,T/C,[4],100 % of control
same,T/C,"dose: 150.0 mg/kg/injection, schedule: Q01DX010 (ip), vehicle: saline",100 % of control
same,T/C,"dose: 215.0 mg/kg/injection, schedule: Q01DX010 (ip), vehicle: saline",100 % of control
CC1CCOS(=O)O1 (stereo not given),T/C,[6],92 % of control
same,T/C,[7],92 % of control
C[C@@H](N)[C@@H](O)c1ccccc1,T/C,[5],96 % of control
CC[n+]1c(-c2ccccc2)c2cc(N)ccc2c2ccc(N)cc21,T/C,[8],113 % of control
same,T/C,[6],120 % of control
O=c1[nH]c(=O)n(C2CC(O)C(CO)O2)cc1F (stereo not given),T/C,[2],107 % of control and 111 % of control
same,T/C,[8],111 % of control
same,T/C,[7],153 % of control
same,T/C,"dose: 37.5 mg/kg/injection, schedule: Q01DX010 (ip), vehicle: saline",169 % of control
COC(=O)c1[nH]c(=O)[nH]c(=O)c1F,T/C,[1],103 % of control
same,T/C,"dose: 4.0 mg/kg/injection, schedule: Q01DX010 (ip), vehicle: saline",93 % of control
CCNc1nncs1,T/C,[9],100 % of control
same,T/C,[10],100 % of control
CN(C)c1ccc(/C=C/c2ccnc3ccccc23)cc1,T/C,[8],100 % of control and 108 % of control
same,T/C,[6],100 % of control
same,T/C,[7],100 % of control and 108 % of control
same,T/C,"dose: 40.0 mg/kg/injection, schedule: Q01DX010 (ip), vehicle: saline",100 % of control
CN(C)Cc1c[nH]c2ccccc12,T/C,[9],100 % of control
same,T/C,[10],100 % of control
CC(=O)Nc1ccc2nc3ccc(NC(C)=O)cc3[n+](-c3ccccc3)c2c1,T/C,[10],100 % of control
same,T/C,[11],103 % of control
same,T/C,[12],88 % of control
CO[C@H]1C[C@H](O[C@H]2CC[C@]3(C=O)[C@H]4CC[C@]5(C)[C@@H](C6=CC(=O)OC6)CC[C@]5(O)[C@@H]4CC[C@]3(O)C2)O[C@H](C)[C@H]1O,T/C,"dose: 1.25 mg/kg/injection, schedule: Q01DX010 (sc), vehicle: saline",92 % of control
same,T/C,"dose: 2.5 mg/kg/injection, schedule: Q01DX010 (sc), vehicle: saline",103 % of control
same,T/C,"dose: 5.0 mg/kg/injection, schedule: Q01DX010 (sc), vehicle: saline",92 % of control
same,T/C,"dose: 10.0 mg/kg/injection, schedule: Q01DX010 (sc), vehicle: saline",89 % of control
NCCCCCCNC(=O)CCCCC(=O)NCCCCCCN,T/C,"dose: 8.0 mg/kg/injection, schedule: Q01DX010 (ip), vehicle: saline",100 % of control
same,T/C,"dose: 16.0 mg/kg/injection, schedule: Q01DX010 (ip), vehicle: saline",100 % of control
same,T/C,[13],95 % of control
same,T/C,[14],95 % of control
CCCCn1cnc2c(=S)nc[nH]c21,T/C,[13],96 % of control
same,T/C,[14],92 % of control and 96 % of control
same,T/C,"dose: 128.0 mg/kg/injection, schedule: Q01DX010 (ip), vehicle: saline",96 % of control and 100 % of control
O=C(OCC1OC(n2cnc3c(=S)nc[nH]c32)C(OC(=O)c2ccccc2)C1OC(=O)c1ccccc1)c1ccccc1 (stereo not given),T/C,"dose: 7.8 mg/kg/injection, schedule: Q01DX010 (ip), vehicle: saline",87 % of control
same,T/C,[9],91 % of control
same,T/C,[10],87 % of control
same,T/C,[11],100 % of control
same,T/C,"dose: 125.0 mg/kg/injection, schedule: Q01DX010 (ip), vehicle: saline",91 % of control
same,T/C,[12],87 % of control
